The text below walks through data of patent publication US20220289698A1, “INHIBITORS OF HUMAN ATGL” (Karl-Franzens-Universität Graz, priority 2019, published 2022).

Where two headings read alike, the source gives them in different places.

Series [1] deals with T1, human ATGL (Homo sapiens, UniProt Q96AD5).
T1 construct: made in house; host or cells: Expi cells (lysate, not purified)
T1 sequence (Q96AD5 1-504): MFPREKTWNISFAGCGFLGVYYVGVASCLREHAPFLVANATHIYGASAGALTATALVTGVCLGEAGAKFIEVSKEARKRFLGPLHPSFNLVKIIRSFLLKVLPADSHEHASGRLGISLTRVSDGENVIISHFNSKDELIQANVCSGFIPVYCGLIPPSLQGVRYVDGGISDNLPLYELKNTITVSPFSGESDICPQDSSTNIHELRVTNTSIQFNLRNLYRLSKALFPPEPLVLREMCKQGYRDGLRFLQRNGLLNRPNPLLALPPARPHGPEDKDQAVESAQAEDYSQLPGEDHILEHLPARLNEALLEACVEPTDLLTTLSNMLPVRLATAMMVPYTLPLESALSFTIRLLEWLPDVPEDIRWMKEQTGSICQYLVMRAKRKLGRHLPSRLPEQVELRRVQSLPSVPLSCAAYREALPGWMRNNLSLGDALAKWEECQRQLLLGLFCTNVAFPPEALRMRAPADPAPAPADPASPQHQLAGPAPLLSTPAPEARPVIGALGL
The experiment in a line: Ki determination, human ATGL lysates with increasing substrate concentrations. As to conditions: non-linear regression. The class given is biochemical. As to the method: For determination of Ki values, lysates from Expi cells overexpressing human ATGL were incubated with recombinant purified ATGL co-activator CGI-58 and ATGL inhibitors at a single concentration dependent on the previously determined IC50. Increasing concentrations of substrate containing radiolabeled triolein were added and liberated FA were extracted and quantified by liquid scintillation. Inhibitors were dissolved in DMSO which was used as control. Ki was determined via non-linear regression analysis. Samples were measured in triplicates.

Another series can be described thus: Stability in human serum. The class given is in vitro ADME. Conditions: 37° C., HPLC MS. As to the method:
Inhibitors were incubated in human serum for 0 or 3 h at 37° C. and subsequently extracted with the MTBE method and analyzed via HPLC MS. Samples measured in triplicates.

Series [2] has as its system differentiated hMADS adipocytes. The series is described as follows: Isoproterenol-stimulated lipolysis in differentiated hMADS adipocytes. As to conditions: Homo sapiens, Adipocyte, 2 h pretreatment, 1 μM isoproterenol 1 h. The class given is cell-based. How it is done: Human differentiated hMADS adipocytes were pretreated with DMSO or ATGL inhibitors for 2 h. Subsequently, lipolysis was stimulated with 1 μM Isoproterenol for 1 h and fatty acid release was determined from media via NEFA Reagent (Wako Diagnostics). Samples were measured in triplicates.
Human differentiated hMADS adipocytes were pretreated with DMSO or ATGL inhibitors for 2 h. Subsequently, lipolysis was stimulated with 1 μM Isoproterenol for 1 h and glycerol release was determined from media via Free glycerol reagent (Sigma Aldrich). Samples were measured in triplicates.

The next series addresses T2, murine ATGL (Mus musculus, UniProt Q8BJ56).
T2 construct: made in house; host or cells: Expi cells (lysate)
T2 sequence (Q8BJ56 1-486): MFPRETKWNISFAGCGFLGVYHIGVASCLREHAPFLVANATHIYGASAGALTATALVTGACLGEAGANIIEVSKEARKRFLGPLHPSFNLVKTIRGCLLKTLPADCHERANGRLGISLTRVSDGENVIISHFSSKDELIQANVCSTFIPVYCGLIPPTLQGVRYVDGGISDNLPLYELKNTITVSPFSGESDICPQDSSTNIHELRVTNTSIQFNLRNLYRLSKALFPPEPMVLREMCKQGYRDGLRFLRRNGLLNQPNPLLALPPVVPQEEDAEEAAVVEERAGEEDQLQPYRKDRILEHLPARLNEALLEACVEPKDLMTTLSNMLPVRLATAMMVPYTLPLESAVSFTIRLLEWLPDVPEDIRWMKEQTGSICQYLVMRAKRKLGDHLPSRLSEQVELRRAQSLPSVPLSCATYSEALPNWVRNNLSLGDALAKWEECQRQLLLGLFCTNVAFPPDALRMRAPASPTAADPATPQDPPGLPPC
The experiment in a line: TG hydrolase activity, Expi lysates expressing mouse ATGL + CGI-58, radiolabelled triolein. The series is classed as biochemical. As to conditions: 50 μM compound; Example 237; read-out: Inhibition of murine ATGL at 50 μM − mean [%]. The essentials:
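Lysates of Expi cells overexpressing mouse ATGL, with added recombinant CGI-58, were incubated with inhibitor at 50 μM. Substrate was emulsified radiolabelled triolein with PC/PI in 100 mM potassium phosphate pH 7.0 and 5% FA-free BSA, 1 h at 37° C. Released FA were extracted and counted by scintillation; triplicates, DMSO control.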

In series [3] the target is T1, human ATGL. The series is described as follows: TG hydrolase activity, Expi cell lysates expressing human ATGL + CGI-58, radiolabelled triolein. The class given is biochemical. As to conditions: Example 237; read-out: Inhibition of human ATGL − IC50. The procedure, abridged:
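Lysates of Expi cells expressing ATGL, supplemented with purified CGI-58 and inhibitor in DMSO, incubated 1 h at 37 °C with emulsified radiolabelled triolein (330 μM) in potassium phosphate pH 7.0 with 5% FA-free BSA. Released FA counted by liquid scintillation after phase extraction; IC50 versus DMSO control, duplicates.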

Another series concerns HepG2 cells. The series is described as follows: Toxicity screening (LDH) in HepG2 cells. Conditions: 24 h treatment, LDH release. The series is classed as cell-based, human. As to the method: HepG2 cells were seeded in 96 well plates and at 50% confluency treated with DMSO (0.5% final conc.) or ATGL Inhibitors for 24 h in DMEM+P/S+3% heat inactivated FCS (3 h at 62° C.). Subsequently, LDH activity of 50 μl medium was determined via the Roche LDH Kit. Samples measured in triplicates.

Where [4] appears, read: fatty acid release, read-out: IC50 hMADS FA release.
Where [5] appears, read: glycerol release, read-out: IC50 hMADS glycerol release.

As usually defined, the Ki is the dissociation constant of the complex between target and ligand, obtained from inhibition or displacement. As a reminder, the IC50 is the concentration that inhibits the measured activity by half. The inhibition is the share of the control response that was lost under treatment. A word on the melting point: it is the temperature of the solid-liquid transition. As to `CCCc1ccc(-c2cccc(C(=O)OC(C)C)n2)cc1` [Example 43], the melting point lay in the range of 104 to 107 °C. This compound displayed a Ki at human ATGL [1] of 470 nM. Further, the “Stability in human serum [% rest after 3 h incubation]” value in “Stability in human serum” is 80%. Besides, the half-inhibitory concentration (IC50) in series [2] (setting [4]) was 3000 nM. In addition, the inhibition at 50 µM on murine ATGL was determined as 9.8%. The IC50 at human ATGL [3] came to 2000 nM.

Regarding `CCCc1ccc(-c2cc(OC)cc(C(=O)OC(C)C)n2)cc1` [Example 53], the Ki at human ATGL [1] is 550 nM. In “Stability in human serum”, the “Stability in human serum [% rest after 3 h incubation]” value came out at 80%. The IC50 worked out at 80000 nM in series [2] (setting [5]) and 1500 nM at human ATGL [3]. Further, the inhibition at 50 µM on murine ATGL worked out at 0%.

In turn, `COCc1ccc(-c2cc(OC)cc(C(=O)OC(C)C)n2)cc1` [Example 61] had a Ki on human ATGL [1] of 420 nM. The “Stability in human serum [% rest after 3 h incubation]” value in “Stability in human serum” is listed as 75%. In addition, the IC50 is 2000 nM in series [2] (setting [4]) and 1000 nM on human ATGL [3]. Moreover, the “Tox HepG2 (LDH) seen from” value with HepG2 cells turned out to be 50 µM.

Compound `CCCCCCc1ccc(-c2cccc(C(=O)OC(C)C)n2)cc1` [Example 68] showed a melting point of 34 to 35 °C. The same compound registered a Ki on human ATGL [1] of 270 nM. In addition, in “Stability in human serum”, the “Stability in human serum [% rest after 3 h incubation]” value is recorded as 80%. Besides, in series [2] (setting [4]), the IC50 is 1000 nM. The inhibition at 50 µM on murine ATGL came to 0%. Besides, the 50% inhibitory concentration (IC50) on human ATGL [3] worked out at 1500 nM.

`CCCCCCOc1ccc(-c2cccc(C(=O)OC(C)C)n2)cc1` [Example 69] showed a melting point of 68 to 70 °C. Besides, at human ATGL [1], the Ki was 830 nM. Moreover, in the series “Stability in human serum”, the “Stability in human serum [% rest after 3 h incubation]” value was 80%. Besides, in series [2] (setting [5]), the IC50 worked out at 80000 nM. Besides, the IC50 on human ATGL [3] came to 1000 nM.

As to `CCCCCCCOc1ccc(-c2cccc(C(=O)OC(C)C)n2)cc1` [Example 86], the melting point was in the range of 64 to 66 °C. The compound also registered an inhibition constant Ki at human ATGL [1] of 470 nM. Further, the “Stability in human serum [% rest after 3 h incubation]” value in the series “Stability in human serum” came out at 80%. Also, the IC50 in series [2] (setting [4]) came to 1000 nM. Further, the inhibition at 50 µM on murine ATGL amounted to 0%. Besides, the IC50 at human ATGL [3] was determined as 1500 nM.

On human ATGL [1], `C#CC(C)OC(=O)c1csc(-c2ccc(OCC)cc2)n1` (stereo not shown) [Example 157, But-3-yn-2-yl 2-(4-ethoxyphenyl)thiazole-4-carboxylate] registered an inhibition constant (Ki) of 210 nM. Besides, the IC50 in series [2] (setting [4]) is 2500 nM; in series [2] (setting [5]), 5000 nM; on human ATGL [3], 900 nM.
